Source: article PMC8617031, “Development of a BCL-xL and BCL-2 dual degrader with improved anti-leukemic activity,” (Nature Communications, 2021)
Several values for one entry are separate records, joined by “and”; a condition that tells them apart may be missing. Equal entries are not always repeated.

How the values were obtained:
BCL-2 = biological target: T1, BCL-2 (Homo sapiens, UniProt P10415); assay: BCL-2 degradation by immunoblot in 293T cells; format: cell-based; settings: for Dmax: HEK-293T
T1 construct: endogenous in cells
Procedure: (§1) The DC50 and Dmax were calculated using Prism based on the ImageJ-quantified western blots in Supplementary Fig. 4. c, d AlphaLISA assay to determine the formation of BCL-xL/PROTAC/VHL-ELOC-ELOB (VCB) (c) or BCL-2/PROTAC/VCB (d) ternary complex in a cell-free condition. Data represent the mean of a single experiment with 2 technical replicates. Similar results were obtained in one more independent experiment. e, f NanoBRET assays evaluating intracellular BCL-xL/PROTAC/VCB (e) or BCL-2/PROTAC/VCB (f) ternary complex formation. […] Data are expressed as mean ± s.e.m. of three biological replicates. Source data are provided as a Source data file.
(§2) Representative immunoblots are shown in (a–d) and β-actin was used as a loading control in all immunoblot analyses. The normalized protein content in the immunoblots is presented as mean values ± s.e.m. (n = 3 biologically independent experiments) in the bar graph (bottom panel). e, f The formation of BCL-xL/PROTAC/VCB (e) and BCL-2/PROTAC/VCB (f) ternary complexes in a cell-free condition was determined by AlphaLISA assay. Data represent the mean of a single experiment with 2 technical replicates. […] Source data are provided as a Source data file.
(§3) Cells were collected, washed once with ice-cold phosphate-buffered saline, pH 7.2 (PBS, cat. no. 20012027; Thermo Fisher Scientific) and lysed in RIPA lysis buffer (Cat. No. BP-115DG, Boston Bio Products, Ashland, MA, USA) supplemented with protease and phosphatase inhibitor cocktails (Cat. No. PPC1010, Sigma-Aldrich, St. Louis, MO, USA) through sonication. The samples were centrifuged at 14,000 r.p.m. for 5 min and the supernatants were transferred into a new tube. The protein concentration in the supernatants was determined using the Pierce BCA protein Assay kit (cat. no. 23225, Thermo Fisher Scientific). The protein concentration was normalized, and the samples were reduced in 4× Laemmli’s SDS-sample buffer (cat. no. BP-110R, Boston Bio Products) and denatured at 95 °C for 5 min. An equal amount of protein samples (20–40 μg per lane) were resolved using precast 4–20% Tris-glycine gels (Mini-PROTEAN TGX, cat. no. 456–1094, Bio-Rad), and resolved proteins were transferred onto 0.2-µm pore size polyvinylidene difluoride (PVDF) blotting membranes (cat. no. LC2002, Thermo Fisher Scientific) using mini trans-blot electrophoretic transfer cell (Bio-Rad). The membranes were blocked with non-fat dry milk (5% wt/vol) in 1× Tris-buffered saline-Tween-20 (TBST, cat. no. J77500, Affymetrix) for 1 h at room temperature, and were subsequently probed with primary antibodies at a predetermined optimal concentration in non-fat dry milk (5% wt/vol in TBST) overnight at 4 °C. The membranes were washed three times (5 min each) in TBST and then incubated with horse radish peroxidase (HRP)-conjugated secondary antibodies for 1 h at room temperature. Following sufficient washing with TBST, the membranes were exposed with chemiluminescent HRP substrate (cat. no. WBKLS0500, MilliporeSigma), and the signal was detected using the ChemiDoc MP Imaging System (Bio-Rad) and quantified using the ImageJ (v1.53a) software from NIH.

BCL-xL = biological target: T2, BCL-xL (Homo sapiens, UniProt Q07817); assay: BCL-xL degradation by immunoblot in 293T cells; format: cell-based; settings: for Dmax: HEK-293T
T2 construct: endogenous in cells
Procedure: as §1, §2, §3

[1] = biological target: T3, BCL-xL/PROTAC/VHL-ELOC-ELOB (VCB) ternary complex (Homo sapiens, UniProt P40337+Q07817); assay: AlphaLISA ternary complex formation, cell-free, BCL-xL; format: binding; settings: for in vitro ternary complex formation with BCL-xL (in words): AlphaLISA, cell-free, Fig. 2c, 3e; for AlphaLISA signal, BCL-xL/PROTAC/VCB: Fig. 2c raw Alpha reads
T3 construct: pGEX-6P-1-VHL(54-213) (pDL2200) was constructed through Gibson assembly method; made in house; host or cells: bacterial culture (LB broth, IPTG induction)
Procedure: (§4) AlphaLISA assay was used to evaluate the in vitro ternary complex formation between target proteins (BCL-xL or BCL-2), PROTAC and E3 ligase (VCB complex). In each well, 5 nM His-tagged BCL-xL or BCL-2 proteins and 5 nM GST-VCB complex was incubated with varying concentrations of compounds in fourfold serial dilutions, to a final volume of 40 µl in a 96-well PCR plate. After incubation at room temperature for 30 min, 5 µl alpha glutathione-donor beads (Cat. No. 6765300, PerkinElmer) were added to each well (20 µg/ml final concentration) and incubated for another 15 min. Thereafter, 5 µL 6× His-acceptor beads were added to each well (20 µg/ml final concentration) and incubated for an additional 45 min at room temperature. Thereafter, 17 µl of each sample was transferred in adjacent wells of a 384-well proxy plate, and the plate was scanned using the Alpha program on Biotek’s Synergy Neo2 multimode plate reader. The data were expressed as average AlphaLISA signal and plotted against different concentrations of compounds using GraphPad Prism 9 software.

[2] = biological target: T4, BCL-2/PROTAC/VCB ternary complex (Homo sapiens, UniProt P10415+P40337); assay: AlphaLISA ternary complex formation, cell-free, BCL-2; format: binding; settings: for in vitro ternary complex formation with BCL-2 (in words): AlphaLISA, cell-free, Fig. 2d, 3f; for AlphaLISA signal, BCL-2/PROTAC/VCB: Fig. 2d raw Alpha reads
T4 construct: pGEX-6P-1-VHL(54-213) (pDL2200) was constructed through Gibson assembly method; made in house; host or cells: bacterial culture (LB broth, IPTG induction)
Procedure: as §4

[3] = compound 200000 nM, 2 technical replicates

T1 sequence (P10415 whole entry): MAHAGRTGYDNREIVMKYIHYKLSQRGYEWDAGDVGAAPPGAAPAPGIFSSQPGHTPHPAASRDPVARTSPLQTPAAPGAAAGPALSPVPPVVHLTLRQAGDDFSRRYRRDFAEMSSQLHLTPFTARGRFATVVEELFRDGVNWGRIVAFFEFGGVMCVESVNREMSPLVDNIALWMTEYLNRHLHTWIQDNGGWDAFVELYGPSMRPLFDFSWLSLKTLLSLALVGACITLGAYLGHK
T4 sequence (P10415 1-211 limits assumed): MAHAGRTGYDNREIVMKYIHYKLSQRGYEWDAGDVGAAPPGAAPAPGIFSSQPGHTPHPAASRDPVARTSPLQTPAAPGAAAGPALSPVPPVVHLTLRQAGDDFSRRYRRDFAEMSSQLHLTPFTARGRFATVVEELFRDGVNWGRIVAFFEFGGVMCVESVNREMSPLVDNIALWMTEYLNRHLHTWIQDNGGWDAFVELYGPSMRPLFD
T4 sequence (P40337 54-213 limits assumed): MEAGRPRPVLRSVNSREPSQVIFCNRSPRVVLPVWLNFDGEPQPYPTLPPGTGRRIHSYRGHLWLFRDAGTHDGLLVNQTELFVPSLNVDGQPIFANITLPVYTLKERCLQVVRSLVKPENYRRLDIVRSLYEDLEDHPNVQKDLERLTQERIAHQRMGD
T4 sequence (Q15369 17-112 partner limits assumed): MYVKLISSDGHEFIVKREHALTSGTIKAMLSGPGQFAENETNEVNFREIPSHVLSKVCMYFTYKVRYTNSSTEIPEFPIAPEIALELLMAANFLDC
T4 sequence (Q15370 whole entry partner): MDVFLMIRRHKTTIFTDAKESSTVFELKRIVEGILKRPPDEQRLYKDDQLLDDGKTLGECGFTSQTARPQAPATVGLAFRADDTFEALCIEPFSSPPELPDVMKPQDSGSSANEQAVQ
T2 sequence (Q07817 whole entry): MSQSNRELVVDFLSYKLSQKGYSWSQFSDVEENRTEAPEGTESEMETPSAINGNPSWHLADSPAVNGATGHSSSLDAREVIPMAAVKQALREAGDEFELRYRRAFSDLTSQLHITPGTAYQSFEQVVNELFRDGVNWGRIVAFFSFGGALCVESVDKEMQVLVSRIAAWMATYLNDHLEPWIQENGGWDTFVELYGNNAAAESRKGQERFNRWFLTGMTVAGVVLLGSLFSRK
T3 sequence (Q07817 1-212 limits assumed): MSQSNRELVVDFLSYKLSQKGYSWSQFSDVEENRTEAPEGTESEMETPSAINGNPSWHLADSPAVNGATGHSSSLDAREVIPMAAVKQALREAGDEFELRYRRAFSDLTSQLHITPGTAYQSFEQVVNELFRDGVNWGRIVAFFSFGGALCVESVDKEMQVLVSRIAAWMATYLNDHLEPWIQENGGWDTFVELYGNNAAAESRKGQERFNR
T3 sequence (P40337 54-213 limits assumed): as the sequence (P40337 54-213 limits assumed) above
T3 sequence (Q15369 17-112 partner limits assumed): as the sequence (Q15369 17-112 partner limits assumed) above
T3 sequence (Q15370 whole entry partner): as the sequence (Q15370 whole entry partner) above

Structure (SMILES) | Dmax (BCL-2) [%] | Dmax (BCL-xL) [%] | in vitro ternary complex formation with BCL-xL (in words) [1] | AlphaLISA signal, BCL-xL/PROTAC/VCB ([1]; compound 0.191 nM) | AlphaLISA signal, BCL-xL/PROTAC/VCB ([1]; compound 0.763 nM) | AlphaLISA signal, BCL-xL/PROTAC/VCB ([1]; compound 3.052 nM) | AlphaLISA signal, BCL-xL/PROTAC/VCB ([1]; compound 12.207 nM) | AlphaLISA signal, BCL-xL/PROTAC/VCB ([1]; compound 48.828 nM) | AlphaLISA signal, BCL-xL/PROTAC/VCB ([1]; compound 195.31 nM) | AlphaLISA signal, BCL-xL/PROTAC/VCB ([1]; compound 781.25 nM) | AlphaLISA signal, BCL-xL/PROTAC/VCB ([1]; compound 12500 nM) | AlphaLISA signal, BCL-xL/PROTAC/VCB ([1]; compound 50000 nM) | AlphaLISA signal, BCL-xL/PROTAC/VCB [1, 3] | in vitro ternary complex formation with BCL-2 (in words) [2] | AlphaLISA signal, BCL-2/PROTAC/VCB ([2]; compound 0.191 nM) | AlphaLISA signal, BCL-2/PROTAC/VCB ([2]; compound 0.763 nM) | AlphaLISA signal, BCL-2/PROTAC/VCB ([2]; compound 3.052 nM) | AlphaLISA signal, BCL-2/PROTAC/VCB ([2]; compound 12.207 nM) | AlphaLISA signal, BCL-2/PROTAC/VCB ([2]; compound 48.828 nM) | AlphaLISA signal, BCL-2/PROTAC/VCB ([2]; compound 195.31 nM) | other results
Cc1ncsc1-c1ccc([C@H](C)NC(=O)[C@@H]2C[C@@H](O)CN2C(=O)[C@@H](NC(=O)CCCCCCCCC(=O)N2CCN(CC3(C)CCC(c4ccc(Cl)cc4)=C(CN4CCN(c5ccc(C(=O)NS(=O)(=O)c6ccc(N[C@H](CCN7CCOCC7)CSc7ccccc7)c(S(=O)(=O)C(F)(F)F)c6)cc5)CC4)C3)CC2)C(C)(C)C)cc1 (stereo partly drawn) [PPC10] | 69 | 81 | much weaker ternary complexes | 14831 and 16852 | 20168 and 16739 | 14541 and 18037 | 19478 and 16699 | 33222 and 36251 | 136427 and 150589 | 133700 and 133335 | 16869 and 17291 | 11499 and 11443 | 9101 and 11295 | much weaker ternary complexes | 13116 and 18939 | 20209 and 15528 | 15560 and 16756 | 23256 and 23865 | 69142 and 68261 | 218425 and 202826 | BCL-2 degradation (in words) (BCL-2; 293T cells, 16 h): also degraded BCL-2; DC50 (BCL-2; 293T cells, four concentrations, 16 h, Fig. 2b, read-out: BCL-2 DC50): 355 nM; DC50 (BCL-xL; 293T cells, four concentrations, 16 h, Fig. 2b, read-out: BCL-xL DC50): 12.1 nM; AlphaLISA signal, BCL-2/PROTAC/VCB ([2]; compound 781.25 nM): 114837 and 140035; AlphaLISA signal, BCL-2/PROTAC/VCB ([2]; compound 3125 nM): 20525 and 27108; AlphaLISA signal, BCL-2/PROTAC/VCB ([2]; compound 12500 nM): 13932 and 13026; AlphaLISA signal, BCL-2/PROTAC/VCB ([2]; compound 50000 nM): 10041 and 13037; AlphaLISA signal, BCL-2/PROTAC/VCB [2, 3]: 11345 and 10101
Cc1ncsc1-c1ccc([C@H](C)NC(=O)[C@@H]2C[C@@H](O)CN2C(=O)[C@@H](NC(=O)CCCCCCCCCC(=O)N2CCN(CC3(C)CCC(c4ccc(Cl)cc4)=C(CN4CCN(c5ccc(C(=O)NS(=O)(=O)c6ccc(N[C@H](CCN7CCOCC7)CSc7ccccc7)c(S(=O)(=O)C(F)(F)F)c6)cc5)CC4)C3)CC2)C(C)(C)C)cc1 (stereo partly drawn) [PPC11] | 38 | 38 | much weaker ternary complexes | 14159 and 17511 | 19035 and 14403 | 18192 and 15524 | 16016 and 15699 | 18370 and 17440 | 28376 and 33281 | 25822 and 27451 | 15507 and 16950 | 13057 and 15839 | 17326 and 15566 | much weaker ternary complexes | 16751 and 14492 | 17062 and 15173 | 17477 and 13618 | 15016 and 16035 | 21071 and 20895 | 36395 and 36207 | AlphaLISA signal, BCL-xL/PROTAC/VCB ([1]; compound 3125 nM): 15301 and 22197; AlphaLISA signal, BCL-2/PROTAC/VCB ([2]; compound 781.25 nM): 16303 and 18907; AlphaLISA signal, BCL-2/PROTAC/VCB ([2]; compound 3125 nM): 17856 and 16482; AlphaLISA signal, BCL-2/PROTAC/VCB ([2]; compound 12500 nM): 13061 and 15598; AlphaLISA signal, BCL-2/PROTAC/VCB ([2]; compound 50000 nM): 10324 and 9718; AlphaLISA signal, BCL-2/PROTAC/VCB [2, 3]: 13464 and 10765
